# Data reported in PubChem BioAssay (NCI).
#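 Exposure lasted 48 hours, with cells grown in 96-well plates and compounds tested at five concentrations. Abbreviation: GI50, concentration required for 50% inhibition of growth. The concentration for full growth arrest is given as TGI.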
# What was measured:
# Assay in all cases: DTP human tumour cell line panel, 48 h
# PC-3 prostate = test system: PC-3 prostate
# M14 melanoma = test system: M14 melanoma
# SNB-19 CNS = test system: SNB-19 CNS
# MALME-3M melanoma = test system: MALME-3M melanoma
# MCF7 breast = test system: MCF7 breast
# A549 NSCLC = test system: A549 NSCLC
# NCI-H23 lung = test system: NCI-H23 lung
# SN12C renal = test system: SN12C renal
# MOLT-4 leukemia = test system: MOLT-4 leukemia
# ACHN renal = test system: ACHN renal
Compound,GI50 (PC-3 prostate) [µM],TGI (PC-3 prostate) [µM],GI50 (M14 melanoma) [µM],TGI (M14 melanoma) [µM],GI50 (SNB-19 CNS) [µM],TGI (SNB-19 CNS) [µM],GI50 (MALME-3M melanoma) [µM],TGI (MALME-3M melanoma) [µM],GI50 (MCF7 breast) [µM],TGI (MCF7 breast) [µM],GI50 (A549 NSCLC) [µM],TGI (A549 NSCLC) [µM],GI50 (NCI-H23 lung) [µM],TGI (NCI-H23 lung) [µM],GI50 (SN12C renal) [µM],TGI (SN12C renal) [µM],TGI (MOLT-4 leukemia) [µM],TGI (ACHN renal) [µM],GI50 (MOLT-4 leukemia) [µM],GI50 (ACHN renal) [µM]
O=C(Nc1ccc(CN2CCOCC2)cc1)c1[nH]ncc1Nc1ncnc2sccc12,0.494,> 100,0.56,13,0.703,> 100,1.83,8.61,0.265,> 100,0.306,13.8,0.358,2.49,0.39,> 100,–,–,–,–
O=c1cccccc1NCCCCCCNc1cccccc1=O,–,–,–,> 100,–,> 100,–,> 100,–,–,–,> 100,–,> 100,–,> 100,> 100,> 100,–,–
CC(=O)c1c(C)n(C)c2c1nnc1ccccc12,–,> 100,–,> 100,–,> 100,–,> 100,–,86.3,–,> 100,–,> 100,–,> 100,–,> 100,–,–
O=C(c1ccccc1)c1ccc(OCCOc2ccc(Nc3ccccc3)cc2)cc1,–,–,–,> 100,–,> 100,–,71,–,–,–,> 100,–,> 100,–,> 100,> 100,84.3,–,–
CC/C(=C(/CC)c1ccc([O-])cc1)c1ccc([O-])cc1.CC/C(=C(\CC)c1ccc([O-])cc1)c1ccc([O-])cc1.O=C([CH-]C(=O)c1ccccc1)c1ccccc1.O=C([CH-]C(=O)c1ccccc1)c1ccccc1.O=C([CH-]C(=O)c1ccccc1)c1ccccc1.O=C([CH-]C(=O)c1ccccc1)c1ccccc1.[Ti+4].[Ti+4],–,–,20.7,78.8,22.6,56.2,30.9,> 100,–,–,18.9,47.9,25.9,97.3,47.1,> 100,> 100,> 100,27.7,35.2
CO/N=C(\C)c1cccc(Nc2cc(-c3ccccc3)nc3c(O)cccc23)c1,4.13,24.3,3.13,18.2,–,–,12.5,35.4,–,–,5.99,21.8,3.92,24,5.04,24.5,–,28.1,–,6.04
CCOC(=O)C1=C(C)NC2SC(=O)/C(=C\c3ccccc3O)N2C1c1ccccc1 (centres undefined),26.5,74.1,24,65.5,31.5,> 100,–,–,86,> 100,27.2,> 100,24.5,53.5,16.6,30.5,–,81.4,–,28.5
COC1CCC(O)C(/C=C/[N+](=O)[O-])C1 (centres undefined),–,6.01,–,10.7,–,23.6,–,–,–,12.9,–,42.9,–,16.6,–,9.05,6.55,29.9,–,–
COc1cnc2c(c1)C(=O)c1c-2n(CCCN2CCC(O)CC2)c(=O)c2cc(F)ccc12,–,–,0.254,1.63,0.175,1.32,0.298,1.2,0.0312,1.17,0.0899,0.32,0.292,1.32,–,–,0.337,0.332,0.0445,0.0902
CCOC(=O)C1=C(O)CSC1=Nc1ccccc1,–,–,–,> 100,–,> 100,–,> 100,–,–,–,> 100,–,> 100,–,> 100,> 100,> 100,–,–
CC(=O)c1cccc(NC(=O)C(=O)C(C2OC(=O)c3ccccc32)[N+](=O)[O-])c1 (centres undefined),–,–,–,> 100,–,> 100,–,> 100,–,–,–,> 100,–,> 100,–,> 100,> 100,> 100,–,–
c1ccc(-c2cc(C3CO3)c3ccccc3n2)cc1 (centres undefined),–,41.2,–,34.2,–,95.5,–,–,–,47.8,–,40.4,–,37.5,–,31.3,49.7,32.8,–,–
COc1ccc(C(=O)C(C(=O)C(=O)Nc2ccc(Cl)c(Cl)c2)c2ccc(OC)cc2)cc1 (centres undefined),–,–,–,> 100,–,> 100,–,> 100,–,–,–,> 100,–,> 100,–,> 100,> 100,> 100,–,–
CN[C@@H](C)[C@@H](N)c1ccccc1,–,–,–,> 100,–,> 100,–,> 100,–,–,–,> 100,–,> 100,–,> 100,> 100,> 100,–,–
CCCC[N+](CCCC)=c1ccc2nc3c(C)cc(N(CC)CC)cc3sc-2c1,0.0583,1.55,0.338,1.64,–,–,0.165,0.429,–,–,–,–,0.0601,1.04,–,–,3.14,1.06,0.0958,0.187
NNC(=S)N/N=C(/C(=O)Nc1cc(Cl)ccc1Cl)C1C(=O)Nc2ccccc2S1=O (centres undefined),–,–,–,> 100,–,> 100,–,> 100,–,–,–,> 100,–,> 100,–,> 100,> 100,> 100,–,–
O=C1N(c2ccccc2)C(=O)C2(SC=NN2Cc2ccccc2)N1c1ccccc1 (centres undefined),–,–,–,> 100,–,> 100,–,> 100,–,–,–,> 100,–,> 100,–,> 100,> 100,> 100,–,–
C1C[S][Ge]2([S]CCO1)[S]CCOCC[S]2,–,–,> 100,> 100,–,–,> 100,> 100,–,–,–,–,> 100,> 100,> 100,> 100,> 100,> 100,> 100,> 100
O=C(CSC(c1ccccc1)c1ccccc1)N/N=C/c1cccc(Cl)c1,19.4,35.7,15.3,29,–,–,13,26.1,19.1,38.4,15.1,40.1,14.9,29,–,–,43.2,26.6,19.1,13.7
